25 compounds from article doi:10.1101/757047v1 (biorxiv, 2019) can be followed below.

Test [1] addresses T1, full length GAK protein N-terminally fused with NanoLuc luciferase (Homo sapiens, UniProt O14976).
T1 sequence (O14976 2-1311): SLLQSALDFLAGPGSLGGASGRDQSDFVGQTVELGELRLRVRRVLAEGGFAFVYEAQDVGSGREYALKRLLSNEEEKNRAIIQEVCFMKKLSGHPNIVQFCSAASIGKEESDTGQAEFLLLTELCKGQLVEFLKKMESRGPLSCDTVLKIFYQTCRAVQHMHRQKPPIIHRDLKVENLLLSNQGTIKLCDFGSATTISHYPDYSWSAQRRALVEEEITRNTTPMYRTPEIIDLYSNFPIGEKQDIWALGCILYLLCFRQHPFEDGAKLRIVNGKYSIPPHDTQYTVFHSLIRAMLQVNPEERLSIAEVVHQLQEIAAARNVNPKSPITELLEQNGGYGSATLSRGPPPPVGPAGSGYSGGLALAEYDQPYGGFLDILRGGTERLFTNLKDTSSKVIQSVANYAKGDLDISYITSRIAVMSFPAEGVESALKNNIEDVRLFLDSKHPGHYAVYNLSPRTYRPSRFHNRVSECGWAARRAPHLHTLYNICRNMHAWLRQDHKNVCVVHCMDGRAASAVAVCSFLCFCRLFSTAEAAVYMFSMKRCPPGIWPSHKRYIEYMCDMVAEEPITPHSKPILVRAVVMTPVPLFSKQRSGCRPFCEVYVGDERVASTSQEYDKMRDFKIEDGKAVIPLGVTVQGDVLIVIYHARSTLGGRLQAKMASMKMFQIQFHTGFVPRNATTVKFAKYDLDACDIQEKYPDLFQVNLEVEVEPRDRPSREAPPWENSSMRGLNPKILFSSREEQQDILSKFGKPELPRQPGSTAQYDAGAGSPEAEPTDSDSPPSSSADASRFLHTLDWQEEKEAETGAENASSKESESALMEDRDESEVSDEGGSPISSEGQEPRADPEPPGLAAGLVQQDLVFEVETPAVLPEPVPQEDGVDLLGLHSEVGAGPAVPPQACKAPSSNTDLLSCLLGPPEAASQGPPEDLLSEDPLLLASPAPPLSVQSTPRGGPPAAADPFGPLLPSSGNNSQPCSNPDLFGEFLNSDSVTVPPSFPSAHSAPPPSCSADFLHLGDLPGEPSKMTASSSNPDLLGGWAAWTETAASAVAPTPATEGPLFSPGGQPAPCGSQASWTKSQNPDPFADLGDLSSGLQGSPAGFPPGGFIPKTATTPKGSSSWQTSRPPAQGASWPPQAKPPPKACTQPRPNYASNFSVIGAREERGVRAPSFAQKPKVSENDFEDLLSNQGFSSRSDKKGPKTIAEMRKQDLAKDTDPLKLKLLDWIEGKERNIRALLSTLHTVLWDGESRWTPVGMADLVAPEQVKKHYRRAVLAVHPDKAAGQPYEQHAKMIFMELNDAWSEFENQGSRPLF
Nature of the test: cell-based. Further details: species or system HEK293T.

Test [2] addresses T2, SLK (Homo sapiens, UniProt Q9H2G2). The experiment in a line: biochemical.
The target of test [3] is T3, GAK (Homo sapiens, UniProt O14976).
T3 sequence (O14976 12-347 limits assumed): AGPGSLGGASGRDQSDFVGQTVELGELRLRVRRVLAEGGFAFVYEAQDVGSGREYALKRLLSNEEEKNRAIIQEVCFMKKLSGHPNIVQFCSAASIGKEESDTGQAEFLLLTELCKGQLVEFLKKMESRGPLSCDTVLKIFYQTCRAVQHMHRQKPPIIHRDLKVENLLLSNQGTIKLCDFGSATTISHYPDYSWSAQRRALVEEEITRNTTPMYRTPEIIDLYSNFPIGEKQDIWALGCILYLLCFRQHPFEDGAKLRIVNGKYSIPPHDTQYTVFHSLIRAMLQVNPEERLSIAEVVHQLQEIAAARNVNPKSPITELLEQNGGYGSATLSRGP
Nature of the test: biochemical.

Test [4] addresses T4, STK10 (Homo sapiens, UniProt O94804). Nature of the test: biochemical.
Test [5] concerns the target T1, full length GAK protein N-terminally fused with NanoLuc luciferase. Nature of the test: cell-based. Also noted: species or system HEK293T. The source holds these as a separate data set.
The target of test [6] is T2, SLK. The experiment in a line: TR-FRET binding displacement assay.
Test [7] deals with T3, GAK. Nature of the test: biochemical. This is another data set of the same source.
In test [8] the target is T4, STK10. Nature of the test: TR-FRET binding displacement assay. (In general: TR-FRET usually uses a lanthanide donor and a delayed reading to cut background.)
For test [9], the target named is T4, STK10. The experiment in a line: biochemical. This is another data set of the same source.
Test [10] deals with T3, GAK. The experiment in a line: biochemical. This is another data set of the same source.
Test [11] concerns the target T2, SLK. The experiment in a line: biochemical. The source holds these as a separate data set.
Test [12] deals with T1, full length GAK protein N-terminally fused with NanoLuc luciferase. Nature of the test: cell-based. Also noted: species or system HEK293T. The source holds these as a separate data set.
The target is the same in test [13]. The experiment in a line: cell-based. Further details: species or system HEK293T. This is another data set of the same source.
The target in test [14] is T2, SLK. Nature of the test: biochemical. The source holds these as a separate data set.
Test [15] addresses T4, STK10. The experiment in a line: biochemical. This is another data set of the same source.

A word on the IC50: it is the midpoint of a concentration-inhibition curve. Usually Ki stands for the dissociation constant of the complex between target and ligand, obtained from inhibition or displacement.

Like-named read-outs stand apart in the source and are kept apart here.

T4 sequence (O94804 36-294 limits assumed): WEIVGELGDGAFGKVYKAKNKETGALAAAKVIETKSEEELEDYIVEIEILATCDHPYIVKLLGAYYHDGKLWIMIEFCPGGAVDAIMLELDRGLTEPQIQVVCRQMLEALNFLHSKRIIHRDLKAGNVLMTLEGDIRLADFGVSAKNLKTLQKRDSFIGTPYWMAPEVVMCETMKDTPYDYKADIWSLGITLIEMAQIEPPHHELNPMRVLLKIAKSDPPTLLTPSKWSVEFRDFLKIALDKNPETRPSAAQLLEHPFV
T2 sequence (Q9H2G2 34-292): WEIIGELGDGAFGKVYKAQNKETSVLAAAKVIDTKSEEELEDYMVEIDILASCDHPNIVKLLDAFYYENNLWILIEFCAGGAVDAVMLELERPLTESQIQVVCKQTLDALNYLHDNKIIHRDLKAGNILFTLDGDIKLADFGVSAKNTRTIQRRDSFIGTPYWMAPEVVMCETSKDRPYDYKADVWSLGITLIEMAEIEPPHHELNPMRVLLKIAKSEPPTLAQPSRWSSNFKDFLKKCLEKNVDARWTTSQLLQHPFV

In test [1], `COc1cc(Nc2c(C#N)cnc3ccccc23)cc(OC)c1OC` [compound 43, 43] showed an IC50 of 330 nM. For the same compound, the Ki on SLK [2] is 7700 nM; at GAK [3], 8.8 nM; on STK10 [4] it was 4700 nM.

On to `COc1cc(Nc2c(C#N)cnc3ccc(Cl)cc23)cc(OC)c1OC` [compound 44, 44], for which, in test [1], it took 240 nM to reach half-maximal inhibition (IC50). Moreover, the Ki is 53000 nM on SLK [2], 3.8 nM on GAK [3] and 26000 nM at STK10 [4].

`COc1cc(Nc2c(C#N)cnc3ccc(Br)cc23)cc(OC)c1OC` [compound 45, 45] displayed an IC50 in test [1] of 200 nM. For the same compound, the Ki at SLK [2] was 9400 nM; on GAK [3] it was 2.3 nM.

Consider `COc1cc(Nc2c(C#N)cnc3ccc(I)cc23)cc(OC)c1OC` [compound 46, 46], for which the IC50 in test [1] worked out at 260 nM. Besides, the figures for the Ki on SLK [2], at GAK [3] and at STK10 [4] were 9700 nM, 4.8 nM and 4200 nM, respectively.

In [1], `COc1ccc2ncc(C#N)c(Nc3cc(OC)c(OC)c(OC)c3)c2c1` [compound 47, 47] registered a 50% inhibitory concentration (IC50) of 92 nM. Further, the values for the Ki at SLK [2], at GAK [3] and at STK10 [4] were 3200 nM, 2.4 nM and 1900 nM, respectively.

Consider `COc1cc2ncc(C#N)c(Nc3cc(OC)c(OC)c(OC)c3)c2cc1OC` [compound 48, 48], for which, in test [1] (read-out: NanoBRET GAK IC50, binder), the IC50 came out at 6 nM. Moreover, the inhibition constant (Ki) on SLK [2] (read-out: SLK Ki, binder) is 570 nM; at GAK [3] (read-out: GAK Ki, binder), 0.85 nM; at STK10 [4] (read-out: STK10 Ki, binder) it was 420 nM.

For the compound `COc1cc(Nc2c(C#N)cnc3ccc(S(C)(=O)=O)cc23)cc(OC)c1OC` [compound 49, 49], in test [1], the IC50 was > 5000 nM. For the same compound, the values for the Ki at SLK [2], on GAK [3] and at STK10 [4] were 1200 nM, 210 nM and 1500 nM, respectively.

Compound `COc1cc(Nc2c(C#N)cnc3cc(Cl)ccc23)cc(OC)c1OC` [compound 50, 50] returned an IC50 in [1] of 470 nM. The Ki on SLK [2] was 1400 nM; on GAK [3], 6.6 nM; on STK10 [4], 790 nM.

Compound `COc1cc(Nc2c(C#N)cnc3cc(Br)ccc23)cc(OC)c1OC` [compound 51, 51] yielded an IC50 in [1] of 140 nM. Also, the values for the Ki at SLK [2], at GAK [3] and on STK10 [4] were 710 nM, 2.9 nM and 440 nM, respectively.

As to `COc1cc(Nc2c(C#N)cnc3cc(I)ccc23)cc(OC)c1OC` [compound 52, 52], it took 200 nM to reach half-maximal inhibition in test [1] (IC50). Also, the inhibition constant (Ki) was 490 nM at SLK [2], 5.2 nM at GAK [3] and 200 nM on STK10 [4].

On to `COc1ccc2c(Nc3cc(OC)c(OC)c(OC)c3)c(C#N)cnc2c1` [compound 53, 53], for which the IC50 in [1] was determined as 78 nM. Further, the Ki at SLK [2] is 2100 nM; on GAK [3], 2 nM; at STK10 [4] it was 1200 nM.

In the case of `C#Cc1cccc(Nc2c(C#N)cnc3cc(I)ccc23)c1` [compound 86, 4-((3-ethynylphenyl)amino)-7-iodoquinoline-3-carbonitrile], in test [5], the IC50 was > 5000 nM. The Ki is 75 nM at SLK [6], 19 nM on GAK [7] and 80 nM at STK10 [8].

Take `C#Cc1cc(Nc2ncnc3cc(C#N)ccc23)ccc1F` [compound 89, 89]: the results for the Ki on STK10 [9], at GAK [10] and at SLK [11] were 870 nM, 550 nM and 690 nM, respectively. Moreover, in test [12], the IC50 was > 5000 nM.

For the compound `C#Cc1cc(Nc2ncnc3cc(C#N)ccc23)ccc1Cl` [compound 90, 90], the inhibition constant (Ki) on STK10 [9] turned out to be 1600 nM; on GAK [10], 320 nM; on SLK [11] it was 6300 nM. Also, the IC50 in test [12] is > 5000 nM.

As to `C#Cc1ccc(F)c(Nc2ncnc3cc(I)ccc23)c1` [compound 91, 91], the Ki at STK10 [9] amounted to 250 nM; on GAK [10], 110 nM; on SLK [11], 390 nM. The IC50 in [12] was > 5000 nM.

With `C#Cc1cccc(Nc2ncnc3cc(I)ccc23)c1F` [compound 92, 92], the Ki at STK10 [9] was 270 nM; on GAK [10] it was 93 nM; at SLK [11], 860 nM. The IC50 in test [12] was > 5000 nM.

On to `C#Cc1cc(Nc2ncnc3cc(I)ccc23)ccc1Cl` [compound 94, 94], for which the Ki at STK10 [9] was 240 nM; at GAK [10] it was 92 nM; at SLK [11] it was 930 nM. In addition, the half-inhibitory concentration (IC50) in [12] was > 5000 nM.

`C#Cc1ccc(F)c(Nc2ncnc3ccc(I)cc23)c1` [compound 95, 95]: the Ki was 4900 nM at STK10 [9], 190 nM on GAK [10] and 4500 nM at SLK [11]. Moreover, the IC50 in test [12] was > 5000 nM.

For the compound `C#Cc1cccc(Nc2ncnc3ccc(I)cc23)c1F` [compound 96, 96], the Ki on STK10 [9] came to 6700 nM; at GAK [10], 290 nM; at SLK [11], 18000 nM. Moreover, the IC50 in [12] is > 5000 nM.

As for `C#Cc1cc(Nc2ncnc3ccc(I)cc23)ccc1F` [compound 97, 97], the figures for the inhibition constant (Ki) at STK10 [9], on GAK [10] and on SLK [11] were 870 nM, 68 nM and 1600 nM, respectively. Besides, the IC50 in [12] is > 5000 nM.

Regarding `C#Cc1cc(Nc2ncnc3ccc(I)cc23)ccc1Cl` [compound 98, 98], the inhibition constant (Ki) was 1000 nM on STK10 [9], 140 nM at GAK [10] and 7100 nM on SLK [11]. In addition, the IC50 in test [12] was > 5000 nM.

Take `C#Cc1ccc(F)c(Nc2ncnc3cc(OC)c(OC)cc23)c1` [compound 99, 99]: the Ki was 220 nM at STK10 [9], 5.8 nM at GAK [10] and 280 nM at SLK [11]. In test [12], half-maximal inhibition (IC50) was put at 390 nM.

Regarding `C#Cc1cc(Nc2ncnc3cc(OC)c(OC)cc23)ccc1F` [compound 101, 101], the Ki on STK10 [9] stood at 47 nM; at GAK [10], 2.4 nM; on SLK [11] it was 72 nM. Half-maximal inhibition in test [12] (IC50) was put at 140 nM.

Consider `C#Cc1cc(Nc2ncnc3cc(OC)c(OC)cc23)ccc1Cl` [compound 102, 102], for which the Ki at STK10 [9] is 75 nM; at GAK [10] it was 3.4 nM; at SLK [11], 330 nM. The compound further had an IC50 in test [12] of 390 nM.

With `Fc1ccc(Nc2ccnc3ccc(Br)cc23)cc1` [compound 108, 108], the IC50 in [13] was determined as 940 nM. Moreover, the Ki on SLK [14] stood at 36000 nM; on STK10 [15], 21000 nM.
